Reference: patent publication US11332485B2, “Penicillin-binding protein inhibitors” (priority 2017, dated 2022)

How the values were obtained:
[1] = tested on: E. coli DH5α/pLBII-CTX-M15; assay: Broth microdilution MIC assay, engineered strain producing CTX-M15; format: cell-based, Escherichia coli; conditions: Escherichia coli, read-out: E. coli DH5α/pLBII-CTX-M15 Microbiological Activity (MIC)
Procedure, shortened: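 CLSI broth microdilution in cation-supplemented Mueller-Hinton broth, 2-fold compound dilutions, 5×10^5 CFU/mL inoculum, 16-20 h at 37° C, MIC read visually as lowest concentration without growth. E. coli DH5α carries CTX-M15 on pLBII under Lac promoter, or empty pLBII as control.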

[2] = molecular target: T1, PBP3 from Escherichia coli (Escherichia coli, UniProt P0AD68); assay: Fluorescence polarization competition binding assay with Bocillin-FL
T1 construct: made in house
T1 sequence (P0AD68 1-577): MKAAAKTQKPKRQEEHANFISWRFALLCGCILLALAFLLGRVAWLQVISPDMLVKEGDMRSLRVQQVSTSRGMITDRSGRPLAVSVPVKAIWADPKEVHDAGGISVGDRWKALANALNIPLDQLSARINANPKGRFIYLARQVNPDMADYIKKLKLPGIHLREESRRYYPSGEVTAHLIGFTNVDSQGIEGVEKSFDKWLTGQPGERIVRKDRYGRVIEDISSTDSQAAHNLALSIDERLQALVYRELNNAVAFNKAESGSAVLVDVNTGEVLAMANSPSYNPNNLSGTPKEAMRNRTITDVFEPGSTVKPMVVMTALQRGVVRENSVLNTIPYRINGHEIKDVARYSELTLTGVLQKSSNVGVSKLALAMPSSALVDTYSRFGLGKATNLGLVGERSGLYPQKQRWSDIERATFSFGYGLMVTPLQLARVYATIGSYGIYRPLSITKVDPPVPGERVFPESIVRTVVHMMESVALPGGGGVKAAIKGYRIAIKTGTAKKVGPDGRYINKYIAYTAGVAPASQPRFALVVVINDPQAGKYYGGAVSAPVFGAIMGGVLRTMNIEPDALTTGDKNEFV
Procedure, shortened: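 Fluorescence polarization competition assay with Bocillin-FL at 0.1 μM final and purified E. coli PBP3 at 1.5 μM final in 50 mM Hepes pH 8.0, 300 mM NaCl, 5% glycerol. Inhibitor preincubated with PBP3 for 30 min before probe addition; FP then read continuously for 60 min. Potency reported in binned categories.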

[3] = molecular target: T1, PBP3 from Escherichia coli; assay: Competition binding assay using Bodipy-FL boronic acid probe (Example 95); conditions: PBP3 3 μM, read-out: E. coli K12 PBP3 Potency
Description: PBP3 from Escherichia coli was cloned and purified as described previously (King, D. T, et al., ACS Infectious Diseases 2015, 1, 175-184). To establish assay conditions for competition binding, an enzyme titration/saturation binding experiment was performed. […] FP was measured immediately upon addition of PBP3 (Ex, Em), using a Cytation3 (BioTek) microplate reader and measured continuously for 60 minutes. […] The competition binding assay was validated using the beta-lactam ampicillin, with Bocillin-FL at a final concentration of 0.1 μM, PBP3 at a final concentration of 1.5 μM and concentrations of ampicillin from 0-1000 μM. […] Binding assays for boronic acid PBP inhibitors were performed in an identical fashion. Representative results are shown in Table 3, where A represents a potency of >500 μM, B represents a potency between 30 μM and 500 μM inclusive, and C represents a potency of <30 μM. NT=Not Tested.
The method described in Example II was adapted to use a Bodipy-labeled boronic acid PBP inhibitor (Example 13 or Example 95) to assess PBP3 potency of boronic acid PBP inhibitors. The method is identical to that described in Example II for the Bocillin-FL competition binding assay, with the following exceptions: PBP3 from Escherichia coli is used at a final concentration of 3 μM. […]

Compound: CCN1CCN(C(=O)NC(C(=O)N[C@H]2Cc3cccc(C(=O)O)c3OB2O)c2csc(N)n2)C(=O)C1=O (stereo partly drawn) [Example 12, (3R)-3-(2-(2-aminothiazol-4-yl)-2-(4-ethyl-2,3-dioxopiperazine-1-carboxamido)acetamido)-2-hydroxy-3,4-dihydro-2H-benzo[e][1,2]oxaborinine-8-carboxylic acid]
- MIC [1]: 8 to 16 µg/mL
- EC50 [2]: < 30 µM
- EC50 [3]: < 10 µM
